Common to all, as to assay: inhibition of tumour cell growth, NCI panel, 48 h
Assay [1] concerns 786-0 renal.
Assay [2] deals with ACHN renal.
Assay [3] relates to BT-549 breast.
Assay [4] deals with CAKI-1 renal.
Assay [5] has as its system DU-145 prostate.
In assay [6] the test system is HCT-116 colon.
The test system of assay [7] is LOX IMVI melanoma.
The test system of assay [8] is NCI-H23 lung.
Assay [9] deals with PC-3 prostate.
In assay [10] the test system is SF-268 CNS.
The subject of assay [11] is SK-MEL-2 melanoma.
Assay [12] deals with SW-620 colon.
In assay [13] the test system is T-47D breast.
The subject of assay [14] is TK-10 renal.
The subject of assay [15] is UACC-257 melanoma.
In assay [16] the test system is K-562 leukemia.
The test system of assay [17] is NCI-H226 lung.

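Each compound was tested at five concentrations against cells in 96-well plates for 48 hours. TGI: total growth inhibition.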 *1 amine or outer side, *2 acyl side, *3 side chain or, on linkers, in order; H or OH if unused. Where a SMILES comes first, the peptide text is derived from it. [ ]: non-standard residue; d: D form. X33 = C=CCC(O[*:1])C(=O)[*:2]; NMeV = CN[CH](C(=O)O)C(C)C; NMeA = CN[CH](C)C(=O)O; βAla = NCCC(=O)O A value given as a limit tells only on which side of the number the result lay.

For `Nc1ncnc2c1cnn2Cc1cn(COCC(O)CO)nn1` (stereo not drawn), the TGI in [1], in [2], in [3], in assay [4], in assay [5] and in assay [6] was greater than 100 µM throughout. Further, the TGI in [7] was greater than 100 µM; in [8], greater than 100 µM; in [9] it was greater than 100 µM; in assay [10], 34.9 µM; in [11] it was greater than 100 µM; in assay [12] it was greater than 100 µM. Also, the TGI in assay [13], in [14] and in assay [15] was greater than 100 µM each time.
As for `O=C1NC(=O)C(COCc2ccccc2)C2=C1SCCC2` (stereo not drawn), the TGI in assay [1], in [2], in assay [3], in [4], in assay [5] and in assay [6] was greater than 100 µM each time. Further, the TGI in assay [16], in assay [7], in [17], in assay [8], in [9] and in [10] was greater than 100 µM in each case. Moreover, the TGI in assay [11], in [12] and in assay [15] was greater than 100 µM in each case.
Take `CCOC(=O)Nc1nn(C)c(=NCc2ccccc2)s1`: the TGI in [1], in assay [2], in [3], in [4], in assay [5] and in [6] was greater than 100 µM throughout. For the same molecule, the TGI in assay [16], in [7], in [9], in assay [11], in assay [12] and in [13] was greater than 100 µM each time. The TGI in assay [14] and in assay [15] was greater than 100 µM in each case.
For the molecule `C=CCC1OC(=O)CCNC(=O)C(C)N(C)C(=O)C(C(C)C)N(C)C(=O)C(C(C)CC)NC(=O)C2CCCN2C1=O` (stereo not drawn) (cyclo([X33]PI[NMeV][NMeA][βAla]); configuration not given here), the TGI in assay [1], in [2], in assay [3], in [4], in assay [5] and in [6] was greater than 100 µM throughout. Moreover, the TGI in [7] is 5.17 µM; in [8], greater than 100 µM; in [9], greater than 100 µM; in assay [10], greater than 100 µM; in assay [11] it was greater than 100 µM; in [12] it was greater than 100 µM. Moreover, the TGI was greater than 100 µM in assay [13], greater than 100 µM in [14] and 71.6 µM in [15].
Regarding `O=C(CCCN1CCC2(CC1)CC(=O)N(N1CCCCCC1)C2=O)c1ccc(F)cc1`, the TGI is 38.1 µM in [1]; greater than 100 µM in assay [2]; greater than 100 µM in assay [3]; greater than 100 µM in assay [4]; greater than 100 µM in assay [5]; greater than 100 µM in [6]. Besides, the TGI in assay [16], in assay [7], in [8], in [9], in [10] and in assay [11] was greater than 100 µM throughout. Also, the TGI in assay [12], in assay [13], in assay [14] and in assay [15] was greater than 100 µM throughout.
For the molecule `O=C1/C(=C/c2c(Cl)[nH]c3ccccc23)c2ccccc2N1c1ccccc1`, the TGI in [1] is 25.4 µM; in assay [2], 57.2 µM; in assay [3] it was 21.2 µM; in assay [4], greater than 100 µM; in assay [5], 32.9 µM; in [6] it was 15.6 µM. In addition, the TGI in [16] was greater than 100 µM; in assay [7], 15.6 µM; in [8] it was 19.3 µM; in assay [9], 19.4 µM; in assay [10] it was 33.2 µM; in assay [11], 9.57 µM. Also, the TGI in assay [12] amounted to 41.7 µM; in assay [13], 16 µM; in assay [14] it was 39.9 µM; in assay [15] it was 23.8 µM.
As for `O=c1oc2c(ccc3ccccc32)cc1C1=CSC2=NCCN12`, the TGI in assay [1] was greater than 100 µM; in assay [2], greater than 100 µM; in assay [3], 71.1 µM; in [4], greater than 100 µM; in assay [5], 75.1 µM; in assay [6] it was greater than 100 µM. In addition, the TGI in assay [16], in assay [7], in [8], in [9], in [10] and in assay [11] was greater than 100 µM throughout. Moreover, the TGI in [12], in assay [13], in [14] and in [15] was greater than 100 µM throughout.
For the molecule `N#Cc1[nH]c(=O)n(-c2cccc3ccccc23)c1N`, the TGI in assay [1], in assay [2], in assay [3], in [4], in [5] and in assay [6] was greater than 10 µM each time. Moreover, the TGI in assay [16], in assay [7], in [8], in assay [9], in assay [10] and in assay [11] was greater than 10 µM throughout. Moreover, the TGI in assay [12], in assay [13], in assay [14] and in [15] was greater than 10 µM throughout.
Turning to `O=C(NCCc1ccccc1)c1c(O)c2ccccc2[nH]c1=O`, the TGI in [1], in [2], in assay [3], in assay [4], in assay [5] and in assay [6] was greater than 100 µM in each case. For the same molecule, the TGI in assay [16], in [7], in [17], in [8], in assay [9] and in [10] was greater than 100 µM in each case. In addition, the TGI in assay [12], in [14] and in assay [15] was greater than 100 µM in each case.

Values taken from PubChem BioAssay (NCI).
